Reference: patent publication US6989270B1, “Using polyamide nucleic acid oligomers to engender a biological response” (Mayo Foundation for Medical Education and Research, priority 1997, dated 2006)
Where two headings read alike, the source gives them in different places.

Columns and labels:
Type in all cases: in vivo, rat
[1] = tested on: NTR1 binding sites; assay: [125I]NT binding in PAG, rest of brain and small intestine after i.p. AS-NTR1-PNA (Example 8); details: for Binding (% change vs control) NT: 24 hours after i.p. injection
[2] = tested on: [125I]neurotensin binding sites (NT receptors); assay: [125I]neurotensin binding assay, PAG and hypothalamus homogenates of treated rats
Description: Binding assays were done with homogenates from rat PAG and hypothalamus tissue as described elsewhere (Kanba et al., J. Neurochem. 46:946-952 (1986) and Al-Rodhan N.R.F., Brain Res. 557:227-235 (1991)). Tissue concentrations were 1 mg wet weight per tube in a total volume of 100 μl with a final buffer concentration of 0.05 M Tris-HCl (pH 7.4) containing the following compounds to inhibit degradation of peptides: 0.02% (w/v) bovine serum albumin, 2.8 mg/ml bacitracin, 1.0 mM EDTA, 0.5 mM o-phenanthroline, 10 μg/ml pepstatin, 10 μg/ml leupeptin, 10 μg/ml aprotinin, 5 mM benzamidine, 2 mM phenylmethylsulfonylfluoride, and 50 μM bestatin. For each experiment, 80 μl of a thawed membranal suspension was incubated for 25 minutes at 20° C. in a solution containing 0.2 nM [^125I]neurotensin with a final volume of 100 μl. After incubation, the mixture was rapidly filtered to separate bound from unbound radioligand. Each filter was then dried for 2 minutes, placed on a solid scintillation sheet (Wallac Oy, Turku Finland; cat. no. 1205-441), and measured for radioactivity in a beta-plate scintillation counter (Wallac Oy; model # 1205 beta plate). Non-specific binding of [^125I]neurotensin, defined as the binding in the presence of 1 μM neurotensin (−20% of total binding), was subtracted from the total binding to calculate the specific binding.
The LIGAND program was used to analyze all binding data (Munson P. J. and Rodbard D., Analyt. Biochem. 107:220-239 (1980)). Specifically, this program was used to calculate equilibrium dissociation constants and maximal number of binding sites.
The analysis of PAG tissue in experiment 1 was as follows. Four rats were cannulated and treated on days -4, -2, and 0 with either ACSF only or NTR1-PNA as described above. One day after the final treatment, the PAG region of the rat brain was removed, homogenized, and used in the binding assays. Rats treated with ACSF only were used to derive control values for the percent control disintegrations per minute (dpm) and percent control receptors (fmol/mg wet weight). Thus, the values for ACSF only treated rats were set to 100 percent. One day after the final treatment, the PAG region from NTR1-PNA oligomer treated rats expressed 60-70 percent fewer [^125I]neurotensin binding sites than ACSF only treated rats.
In experiment 2, five rats were untreated and used as controls, two recovered rats were treated with ACSF only, and four rats were treated with NTR1-PNA oligomers. The two rats treated with ACSF only are designated as recovered since both rats previously received a single dose of PNA oligomers intraperitoneally (one received NTR1-PNA oligomers and the other MU1R-PNA oligomers). These rats, however, were not used until five days after the intraperitoneal (i.p.) PNA oligomer treatment. Thus, at the time the binding analysis was performed, these rats were completely normal as determined by the behavioral NT-mediated responses and the MOR-mediated response described above. Again, one day after the final treatment, the PAG region from NTR1-PNA oligomer treated rats expressed fewer [^125I]neurotensin binding sites than both the recovered ACSF only treated rats and untreated control rats. In this experiment, the reduction in binding sites was about 20-30 percent of those expressed by the untreated rats.
NT binding sites from the hypothalamus region of the rat brain were also analyzed. In this experiment, the hypothalamus region of rat brain was removed from the same rats used in experiment 2 to analyze the PAG region (five untreated control rats, two recovered ACSF only treated rats, and four NTR1-PNA oligomer treated rats). The untreated rats were used to derive control values. One day after the final treatment, the hypothalamus region from NTR1-PNA oligomer treated rats expressed 40-50 percent fewer [^125I]neurotensin binding sites than untreated control rats. […]

[3] = tested on: [125I]neurotensin binding sites (NT receptors); assay: as above; details: for number of receptors (mean ± SEM in fmol/mg wet wt.) / percent of control / Kd: 24 hours after single oral 10 mg/kg; for Kd: [125I]neurotensin, read-out: KD (mean ± SEM in nM)
[4] = tested on: neurotensin receptor-1 (NTR1); assay: NT-induced hypothermia (rectal body temperature) in PNA-treated rats
Description: NTR1-PNA, MU1R-PNA, and ACSF treated as well as untreated rats were analyzed using the hot plate test for NT. One day after the last treatment, each rat was analyzed as follows. Fifteen minutes prior to testing, a pre-drug latency measurement was made by placing the rat on a hot plate maintained at a temperature of 52±0.15° C. and recording the time elapsed before the rat licked either of its hindpaws. In addition, the temperature of the rat was taken using a thermister probe inserted 3 cm in the rectum to determine the pre-drug body temperature (BT). After making these measurement, an appropriate dose of NT (18 nmol) at a volume of about 0.5 ul was administered into the PAG as described above. Thirty minutes after administering NT, the rat was again placed on a hot plate maintained at a temperature of 52±0.15° C. and the latency between the time the rat was placed on the surface and the time it licked either of its hindpaws was measured. […] Hot plate tests were scored as the percent of maximum possible effect (% MPE) and calculated using the following equation: % MPE=[(post-drug latency−pre-drug latency)/(cut-off−pre-drug latency)]×100; where the cut-off is 30 seconds. […] This average for untreated control rats was used to set the baseline MPE value to 100. Immediately after the 30 second hot plate test, BT was taken to measure NT-induced hypothermia using a thermister probe inserted 3 cm in the rectum. […] All test situations were compared to these baseline values derived from NT responsive untreated controls.
AS-NTR1-PNA, mismatch-AS-NTR1-PNA, and MU1R-PNA were injected intraperitoneally (10 mg/kg) independently, into separate groups of male Sprague-Dawley rats (Harlan, Prattville, Ala.). The sense-NTR1-PNA oligomer, however, was microinjected directly into the periaqueductal gray (PAG; 5 μg), the major area in the brain involved with perception of pain (nociception). […] Thirty minutes after receiving NT, animals were scored for anti-nociception (hot plate at 52° C.) and hypothermia (rectal probe). Again, anti-nociception scores were calculated as percent of maximum possible effect (% MPE) with the following equation: % MPE=[(post-drug latency time minus pre-drug latency time)/(cut-off time minus pre-drug latency time)]×100; where the cut-off time (i.e., the time when the animal was removed from the device) was 30 seconds for a hot plate test and 12 seconds for a tail flick test. Statistical analysis was done using the rank sum test.

[5] = Hypothalamus tissue, untreated control, PNA injected into PAG
[6] = PAG tissue, Experiment 1, control ACSF only, PAG injections days -4, -2, 0
[7] = PAG tissue, Experiment 2, untreated control

## NTR1-PNA: 12-mer antisense PNA oligomer to rat NTR1 coding region, 5′-CATTGCTCAAAC-3′ (SEQ ID NO: 1) (all peptide nucleic acid (PNA))
[1]; PAG
  reduction in the number of NTR1 binding sites vs untreated animals: 35%
  Binding (% change vs control) NT: −35 ± 9 % change vs control
[1]; Rest of Brain
  Binding (% change vs control) NT: −40 ± 1 % change vs control
[1]; Small Intestine
  Binding (% change vs control) NT: −65 ± 5 % change vs control
[1]; rest of brain
  reduction in the number of NTR1 binding sites vs untreated animals: 40%
[1]; small intestine
  reduction in the number of NTR1 binding sites vs untreated animals: 65%
[2]; [5]
  % Control receptors: 51 % Control
[2]; [6]
  % Control dpm's: 41 % Control
  % Control receptors: 32 % Control
[2]; [7]
  % Control dpm's: 81 % Control
  % Control receptors: 67 % Control
[2]; PAG, experiment 1, one day after final treatment
  fewer [125I]neurotensin binding sites than ACSF only treated rats: 60-70%
[2]; PAG, experiment 2, one day after final treatment
  reduction in [125I]neurotensin binding sites vs untreated rats: 20-30%
[2]; excess PNA added in vitro to brain homogenates
  effect of excess PNA added to brain homogenates on the binding assay: did not change these results
[2]; hypothalamus, one day after final treatment
  fewer [125I]neurotensin binding sites than untreated control rats: 40-50%
[3]; [5]
  % Control dpm's: 55 % Control
[3]; Hypothalamus
  number of receptors (mean ± SEM in fmol/mg wet wt.): 240 ± 30 fmol/mg wet wt.
  percent of control: 51%
[3]; PAG and hypothalamus, 24 hours after oral 10 mg/kg
  NT binding sites reduced: 50%
[3]; PAG
  number of receptors (mean ± SEM in fmol/mg wet wt.): 140 ± 20 fmol/mg wet wt.
  percent of control: 48%
[3]; PAG of treated rats
  Kd: 8.2 ± 0.7 nM
[3]; hypothalamus of treated rats
  Kd: 7 ± 0.8 nM
[4]; 10 mg/kg intraperitoneally, NT 18 nmol 24 hours later
  body temperature change in response to NT: −0.5 °C
[4]; PNA injected into PAG on days -4, -2, 0
  time until which NT-mediated hypothermia remained significantly reduced: day six
[4]; intraperitoneal dose-response, one batch of PNA
  ED50 for reducing NT hypothermia: 3.2 mg/kg
